This is an account of results in publication PMC11201061, “Mechanistic Study of Antimicrobial Effectiveness of Cyclic Amphipathic Peptide [R4W4] against Methicillin-Resistant Staphylococcus aureus Clinical Isolates” (Antibiotics, 2024).

In brackets after ≈: the same amount, converted by molar mass.

The test system of test [1] is MRSA USA300. The experiment in a line: Checkered board synergy assay with gentamicin. The test is classed as cell-based, Staphylococcus aureus. The procedure: (§1) An amount of 100 µL of [R4W4] peptide test solution at a final concentration of 512 µg/mL was added to each well A-G column 1 in plate A using a multi-channel pipette. A 50 µL MH Broth was added to micro-plate well A-G columns 2–9. Using a multi-channel pipette, a two-fold serial dilution was performed by removing 50 µL solution from column 1 and was added to column 2 with thorough mixing. The micro-pipette was discarded after each transfer. The last portion after column 9 was discarded. In another microplate, 100 µL MHB was added to well B-G columns 1–11 using a multi-channel pipette. A 200 µL gentamicin test solution 512 µg/mL was added to row A, columns 1–11. A two-fold serial dilution was performed by removing 100 µL from rows A to B. The last portion was discarded. Using eight multi-channel pipettes, 50 µL of gentamicin test solution was transferred in the ordinate column A-G row 1 to the first microplate. The plate was incubated at 37 °C for 18–24 h. The fractional inhibitory concentration (FIC) of the antibacterial agents and the fractional inhibitory concentration index (FICI) of the two antibacterial agents were determined to evaluate the synergistic interaction. The FICI was interpreted as follows: FICI ≤ 0.5, synergy; 0.5 < FICI ≤ 1, partial synergy; 1 ≤ FICI < 4, additive effect or indifference; 4 ≤ FICI antagonism and calculated from the mean values from multiple experiments.

In another test the test system is E. coli 25922. As to the kind of experiment: Checkered board synergy assay with gentamicin. The test is classed as cell-based, Escherichia coli. The procedure:
as §1

The test system of test [2] is MRSA USA300. As to the kind of experiment: microbe, parasite or virus in culture. The procedure:
MRSA USA300 bacteria from −80 °C freezer stock were cultured on an LB agar plate overnight. One bacteria colony was added to a 6 mL fresh MHB with constant shaking at 200 rpm at 37 °C. The bacteria were transferred daily by inoculating 10 μL of stationary-phase culture into […] of MHB in a 1 mL cap-clipped Eppendorf tube. Then, 20 μL of bacteria aliquot was added to […] of MHB broth, with or without [R4W4], at a final concentration of the MIC overnight in an […] at 37 °C for five transfers. […] […] Experiments were performed in triplicates. Every time we increased the concentration of [R4W4], a sample of the induction generation was inoculated into 20% (vol/vol) glycerol and stored at −70 °C. The final MIC values of [R4W4], vancomycin, and levofloxacin were determined by modified microbroth dilution assay.

For test [3], the system named is MRSA USA300. As to the kind of experiment: microbe, parasite or virus in culture. Particulars: MRSA USA300, overnight 37 °C, duplicate. The procedure:
The interaction of [R4W4], melittin, and vancomycin with LTA in the presence of MRSA was determined using a microbroth dilution assay. Two-fold serial dilution was used to achieve a 100 μL final concentration of the antibacterial agents in a 96 microplate well. A 360 μL S. aureus LTA (Sigma Aldrich stock 5 mg/mL) was added to 17.64 mL MHB containing MRSA (5 x 10^5 CFU/mL) to achieve the final concentration of S. aureus LTA 100 μg/mL. Then, 100 μL aliquots of MHB (MRSA (5 × 10^5 CFU/mL) and 100 μg/mL S. aureus LTA) were added to the 96 microtiter wells containing the antibacterial agents. The microplate was incubated overnight at 37 °C to obtain the MICs. Controls were bacteria grown in the presence of LTA alone and in MHB alone.

Consider `CNC(C)C1CCC(N)C(OC2C(N)CC(N)C(OC3OCC(C)(O)C(NC)C3O)C2O)O1` (stereo not shown) [Gentamicin, gentamicin, reference compound], for which the “MIC(B+A) (gentamicin in combination with [R4W4])” value is listed as 0.05 µg/mL in the test on MRSA USA300 [1] (MRSA USA300, checkered board) and 0.19 µg/mL in the test on E. coli 25922 (E. coli 25922, checkered board). Besides, the “MICB (gentamicin alone)” value in the test on MRSA USA300 [1] (MRSA USA300, checkered board) is listed as 0.09 µg/mL; in the test with E. coli 25922 (E. coli 25922, checkered board) it was 0.75 µg/mL. The FICB with MRSA USA300 [1] (MRSA USA300, fractional inhibitory concentration of gentamicin) was determined as 0.56; in the test on E. coli 25922 (E. coli 25922, fractional inhibitory concentration of gentamicin), 0.25. Besides, the “reduction in MIC value in combination” value with MRSA USA300 [1] (MRSA, [R4W4] + gentamicin combination versus alone) is ~ 2 fold; in the test with E. coli 25922 (E. coli, [R4W4] + gentamicin combination versus alone) it was “approximately 4 fold”.
`C[C@H]1COc2c(N3CCN(C)CC3)c(F)cc3c(=O)c(C(=O)O)cn1c23` [levofloxacin, Levofloxacin]: the “MIC against index isolate (no serial passage)” value in the test with MRSA USA300 [2] (MRSA USA300 index strain, MIC in duplicate) was found to be 1 µg/mL (≈ 2.77 µM). Further, the “change in MIC after serial passage” value with MRSA USA300 [2] (MRSA USA300 passaged versus index strain) was determined as 2 folds. For the same molecule, the MIC in the test on MRSA USA300 [2] (Staphylococcus aureus, MRSA|USA300, read-out: MIC against serial passaged [R4W4]-resistant isolate) turned out to be 2 µg/mL (≈ 5.53 µM).
Consider `CC[C@H](C)[C@H](NC(=O)CN)C(=O)NCC(=O)N[C@@H](C)C(=O)N[C@H](C(=O)N[C@@H](CC(C)C)C(=O)N[C@@H](CCCCN)C(=O)N[C@H](C(=O)N[C@@H](CC(C)C)C(=O)N[C@H](C(=O)N[C@H](C(=O)NCC(=O)N[C@@H](CC(C)C)C(=O)N1CCC[C@H]1C(=O)N[C@@H](C)C(=O)N[C@@H](CC(C)C)C(=O)N[C@H](C(=O)N[C@@H](CO)C(=O)N[C@@H](Cc1c[nH]c2ccccc12)C(=O)N[C@H](C(=O)N[C@@H](CCCCN)C(=O)N[C@@H](CCCNC(=N)N)C(=O)N[C@@H](CCCCN)C(=O)N[C@@H](CCCNC(=N)N)C(=O)N[C@@H](CCC(N)=O)C(=O)N[C@@H](CCC(N)=O)C(N)=O)[C@@H](C)CC)[C@@H](C)CC)[C@@H](C)O)[C@@H](C)O)C(C)C)C(C)C` [melittin, reference compound], for which, in the test on MRSA USA300 [3] (100 μg/mL S. aureus LTA in MHB), the “MIC in the presence of LTA” value stood at 32 µg/mL. In addition, the “MIC in the absence of LTA” value against MRSA USA300 [3] (MHB) turned out to be 8 µg/mL.
